Reference: the supplement of paper PMC10307832

Columns and labels:
Assay in all cases: relative viability (nuclei count vs DMSO), 5 days (fraction); higher = more cells survive
Gemcitabine = compound: Nc1ccn([C@@H]2O[C@H](CO)[C@@H](O)C2(F)F)c(=O)n1 [Gemcitabine]
In short: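 Viability is treated-well nuclei as a fraction of vehicle-well nuclei, reported as the median across plates. Before counting, lung cancer cell lines were kept overnight at 37 °C in 1536-well plates, pinned with five √10-spaced library-drug doses on vehicle-anchored plates, and left 5 days without medium change, then fixed, permeabilised and Hoechst-stained in one step, imaged at 4× and counted by MetaXpress. A plate passed only if control CV was below 25% and at least one doubling occurred.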

Gemcitabine + Phenformin = compound: Nc1ccn([C@@H]2O[C@H](CO)[C@@H](O)C2(F)F)c(=O)n1 [Gemcitabine] + N=C(N)NC(=N)NCCc1ccccc1 [Phenformin] (partner 250 µM)
In short: (§1)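 Lung cancer cell lines in 1536-well plates were dosed by pin tool the day after seeding, either with one drug alone or with a fixed anchor-drug dose plus five library-drug doses (not always all listed) in √10 steps. After 5 days, cells were fixed and their nuclei stained in one step (final 0.05% Triton X-100, 1% formaldehyde, 1 ug/ml Hoechst), then counted on 4× images. Relative viability is the nuclei count in treated wells divided by that in vehicle wells. Values are medians of duplicate plates.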

Gemcitabine + Tozasertib = compound: Nc1ccn([C@@H]2O[C@H](CO)[C@@H](O)C2(F)F)c(=O)n1 [Gemcitabine] + Cc1cc(Nc2cc(N3CCN(C)CC3)nc(Sc3ccc(NC(=O)C4CC4)cc3)n2)n[nH]1 [Tozasertib] (partner 0.1 µM)
In short: as §1

Gemcitabine + Navitoclax = compound: Nc1ccn([C@@H]2O[C@H](CO)[C@@H](O)C2(F)F)c(=O)n1 [Gemcitabine] + CC1(C)CCC(c2ccc(Cl)cc2)=C(CN2CCN(c3ccc(C(=O)NS(=O)(=O)c4ccc(N[C@H](CCN5CCOCC5)CSc5ccccc5)c(S(=O)(=O)C(F)(F)F)c4)cc3)CC2)C1 [Navitoclax] (partner 0.5 µM)
In short: as §1

Cell Line	relative viability (Gemcitabine; 0.001 µM)	relative viability (Gemcitabine; 0.003162 µM)	relative viability (Gemcitabine; 0.01 µM)	relative viability (Gemcitabine; 0.03162 µM)	relative viability (Gemcitabine; 0.1 µM)	relative viability (Gemcitabine + Phenformin; first compound 0.001 µM)	relative viability (Gemcitabine + Phenformin; first compound 0.003162 µM)	relative viability (Gemcitabine + Phenformin; first compound 0.01 µM)	relative viability (Gemcitabine + Phenformin; first compound 0.03162 µM)	relative viability (Gemcitabine + Phenformin; first compound 0.1 µM)	relative viability (Gemcitabine + Tozasertib; first compound 0.001 µM)	relative viability (Gemcitabine + Tozasertib; first compound 0.003162 µM)	relative viability (Gemcitabine + Tozasertib; first compound 0.01 µM)	relative viability (Gemcitabine + Tozasertib; first compound 0.03162 µM)	relative viability (Gemcitabine + Tozasertib; first compound 0.1 µM)	relative viability (Gemcitabine + Navitoclax; first compound 0.001 µM)	relative viability (Gemcitabine + Navitoclax; first compound 0.003162 µM)	relative viability (Gemcitabine + Navitoclax; first compound 0.01 µM)	relative viability (Gemcitabine + Navitoclax; first compound 0.03162 µM)	relative viability (Gemcitabine + Navitoclax; first compound 0.1 µM)
201T	0.939	0.958	0.988	0.697	0.482	0.43	0.455	0.427	0.334	0.263	0.981	0.98	0.896	0.425	0.298	1.17	1.24	1.24	1.19	0.494
A549	1.03	0.894	0.0734	0.0244	0.0209	0.158	0.0726	0.0184	0.0201	0.0216	–	–	–	–	–	1.21	1.1	0.0375	0.0126	0.0108
A-427	0.96	0.867	0.584	0.293	0.143	0.328	0.273	0.16	0.178	0.117	0.189	0.19	0.135	0.13	0.121	0.918	0.907	0.719	0.189	0.124
ABC-1	0.965	0.823	0.703	0.291	0.235	0.197	–	0.236	0.186	0.212	0.185	–	0.159	0.188	0.187	–	–	–	–	–
BEN	0.973	0.726	0.282	0.152	0.117	0.262	0.23	0.243	0.222	0.202	0.56	0.559	0.419	0.24	0.175	0.0578	0.0698	0.0605	0.0528	0.0444
CAL-12T	1.04	0.935	0.643	0.206	0.14	0.587	0.335	0.437	0.226	0.122	0.292	0.35	0.29	0.22	0.129	1.14	1.1	0.845	0.164	0.141
COR-L23	0.992	0.941	0.701	0.117	0.0953	0.432	0.368	0.193	0.1	0.0829	0.223	0.19	0.111	0.0883	0.0724	0.951	0.96	0.381	0.0768	0.0895
COR-L 105	0.947	0.934	0.572	0.269	0.234	0.563	0.48	0.308	0.271	0.203	0.38	0.31	0.349	0.263	0.191	0.792	0.581	0.544	0.291	0.263
Calu-6	0.975	0.649	0.33	0.147	0.129	–	–	–	–	–	–	–	–	–	–	0.789	0.317	0.111	0.0922	0.0731
ChaGo-K-1	1.07	0.871	0.538	0.265	0.219	0.444	0.378	0.204	0.17	0.159	0.217	0.216	0.184	0.181	0.155	0.939	0.443	0.361	0.26	0.266
EBC-1	0.791	0.235	0.174	0.138	0.142	–	–	–	–	–	–	–	–	–	–	0.268	0.187	0.136	0.19	0.126
EKVX	0.943	0.766	0.461	0.201	0.139	0.233	0.194	0.119	0.132	0.109	0.456	0.376	0.257	0.12	0.106	0.93	0.89	0.0897	0.133	0.0934
EMC-BAC-2	0.89	0.996	0.642	0.267	0.226	0.566	0.525	0.425	0.205	0.204	0.269	0.32	0.26	0.176	0.155	1.21	1.17	1.11	0.147	0.136
EPLC-272H	1.05	1.01	0.591	0.113	0.0839	0.348	0.324	0.174	0.158	0.0709	0.291	0.295	0.249	0.0772	0.0692	1.14	0.953	0.395	0.0915	0.07
H3255	0.981	0.781	0.631	0.297	0.198	0.352	0.266	0.31	0.368	0.302	0.604	0.497	0.407	0.258	0.209	0.558	0.404	0.135	0.121	0.106
HARA	1.03	0.984	0.971	0.469	0.118	0.498	0.556	0.445	0.222	0.0544	0.12	0.103	0.095	0.0811	0.042	1.15	1.17	1.1	0.289	0.0674
HCC-15	1.04	1.06	0.941	0.468	0.108	0.47	0.492	0.331	0.144	0.0968	0.51	0.436	0.39	0.247	0.0632	0.718	0.702	0.69	0.441	0.0936
HCC-44	0.99	0.815	0.935	0.527	0.264	0.156	0.139	0.101	0.098	0.102	1.05	0.918	0.774	0.194	0.162	0.97	0.993	0.893	0.173	0.154
HCC-78	0.849	0.595	0.436	0.255	0.237	0.581	0.538	0.285	0.209	0.233	0.448	0.37	0.147	0.198	0.164	0.795	0.428	0.191	0.119	0.104

Cell Line	relative viability (Gemcitabine; 0.001 µM)	relative viability (Gemcitabine; 0.003162 µM)	relative viability (Gemcitabine; 0.01 µM)	relative viability (Gemcitabine; 0.03162 µM)	relative viability (Gemcitabine; 0.1 µM)	relative viability (Gemcitabine + Phenformin; first compound 0.001 µM)	relative viability (Gemcitabine + Phenformin; first compound 0.003162 µM)	relative viability (Gemcitabine + Phenformin; first compound 0.01 µM)	relative viability (Gemcitabine + Phenformin; first compound 0.03162 µM)	relative viability (Gemcitabine + Phenformin; first compound 0.1 µM)	relative viability (Gemcitabine + Tozasertib; first compound 0.001 µM)	relative viability (Gemcitabine + Tozasertib; first compound 0.003162 µM)	relative viability (Gemcitabine + Tozasertib; first compound 0.01 µM)	relative viability (Gemcitabine + Tozasertib; first compound 0.03162 µM)	relative viability (Gemcitabine + Tozasertib; first compound 0.1 µM)	relative viability (Gemcitabine + Navitoclax; first compound 0.001 µM)	relative viability (Gemcitabine + Navitoclax; first compound 0.003162 µM)	relative viability (Gemcitabine + Navitoclax; first compound 0.01 µM)	relative viability (Gemcitabine + Navitoclax; first compound 0.03162 µM)	relative viability (Gemcitabine + Navitoclax; first compound 0.1 µM)
HCC-366	0.992	0.939	0.535	0.0641	0.0314	0.622	0.662	0.144	0.0348	0.0327	0.14	0.105	0.0801	0.0228	0.0235	1.03	1.01	0.656	0.014	0.0109
HCC-827	1.05	0.928	0.783	0.51	0.252	0.448	0.248	0.281	0.197	0.154	0.402	0.392	0.303	0.191	0.169	0.967	0.815	0.557	0.357	0.224
HOP-62	0.923	0.855	0.176	0.103	0.0838	0.67	0.492	0.239	0.0719	0.0597	0.392	0.285	0.0943	0.0841	0.0623	0.933	0.813	0.097	0.0507	0.0459
IA-LM	0.963	0.88	0.74	0.108	0.0519	–	–	–	–	–	–	–	–	–	–	0.896	0.796	0.409	0.0336	0.0251
LC-2-ad	1.03	0.763	0.762	0.316	0.159	0.569	0.347	0.339	0.212	0.161	0.497	0.407	0.379	0.191	0.2	0.431	0.4	0.236	0.118	0.0927
LCLC-97TM1	0.909	0.455	0.139	0.0859	0.0792	0.376	0.406	0.179	0.187	0.144	0.253	0.244	0.156	0.123	0.134	0.379	0.182	0.0922	0.0774	0.106
LCLC-103H	0.933	1.07	1	0.769	0.376	0.321	0.318	0.279	0.198	0.193	0.491	0.399	0.395	0.176	0.139	–	–	–	–	–
LK-2	0.997	0.915	0.708	0.255	0.187	0.834	0.43	0.313	0.142	0.142	0.162	0.157	0.21	0.183	0.165	0.822	0.732	0.444	0.222	0.203
NCI-H358	0.972	0.415	0.179	0.154	0.157	0.291	0.22	0.101	0.0745	0.0748	0.086	0.081	0.0836	0.081	0.0743	–	–	–	–	–
NCI-H650	0.878	0.316	0.195	0.157	0.165	0.387	0.255	0.202	0.158	0.168	0.676	0.384	0.193	0.143	0.15	–	–	–	–	–
NCI-H661	1.05	0.941	0.808	0.305	0.259	0.282	0.263	0.231	0.197	0.226	0.367	0.366	0.338	0.263	0.219	–	–	–	–	–
NCI-H1299	0.998	1.05	1	1.02	1.03	–	–	–	–	–	–	–	–	–	–	1.02	1.08	1.04	1.02	1.06
NCI-H1563	0.998	0.983	0.866	0.538	0.49	0.66	0.605	0.53	0.494	0.497	–	–	–	–	–	–	–	–	–	–
NCI-H1648	0.846	0.771	0.999	0.413	0.283	–	–	–	–	–	0.593	–	0.407	0.251	0.198	–	–	–	–	–
NCI-H1703	0.699	0.264	0.138	0.126	0.115	–	–	–	–	–	–	–	–	–	–	0.73	0.178	0.141	0.118	0.102
NCI-H1792	1.06	0.43	0.165	0.127	0.0999	0.291	0.104	0.0944	0.119	0.0679	–	–	–	–	–	0.828	0.581	0.133	0.0844	0.0803
NCI-H2342	0.922	0.972	0.777	0.438	0.305	0.477	0.426	0.539	0.281	0.315	0.456	0.451	0.427	0.279	0.268	–	–	–	–	–
SW 900	0.802	0.424	0.153	0.134	0.141	0.654	0.181	0.0793	0.0687	0.0927	0.462	0.241	0.127	0.0969	0.109	–	–	–	–	–
